Each structure is given as a SMILES string.

The subject of one assay is MCF7 cells. The assay is described as follows: MCF7 proliferation in response to E2 or insulin. Conditions: SERMs and SERDs 10^-6 M, insulin 2×10^-9 M. Type of assay: cell-based. The method, then: The expression of ESR1 target genes responsive to (FIG. 10A) agonists, (FIG. 10B) primarily SERMs, or (FIG. 10C) SERMs and agonists was analyzed as in FIG. 5. Relative changes of these and additional target genes designed to evaluate dose dependent response to RAD1901 are presented in FIG. 11. Significant target gene regulation (*p<0.05) as compared to the vehicle control was detected by 2 way ANOVA followed by Fisher's LSD (Graphpad Prism 6). […] Triplicate wells of SKBR3 cells were transfected with plasmids expressing ESR1 fused to VP16 together with Gal4DBD alone (control) or Gal4DBD fused to ESR1 interacting peptides noted on the horizontal axis. Cells were then treated with the indicated ESR1 ligands (10^−7 M unless otherwise indicated). Interaction of ESR1 with the Gal4DBD peptide constructs was detected through activation of a Gal4-responsive luciferase reporter construct and was normalized to detected β-galactosidase activity expressed in a constitutive manner using a second vector. Normalized response was expressed as fold increase over the detected level of interaction between Gal4DBD alone and ESR1-VP16 in the absence of ligand (Veh). For FIG. 10E, the effect of SERMs and SERDs (10^−6 M) on the proliferation of MCF7 cells in response to E2 (10^−9 M) or insulin (2×10^−9 M) was evaluated as in FIG. 5. Statistically similar treatments (2-way ANOVA followed by Bonferroni comparison) are indicated by letters. […] The expression of ESR1 target genes responsive to (A) agonists, (B) primarily SERMs, or (C) SERMs and agonists was analyzed using RT qPCR following RNA isolation. mRNA expression was normalized (ΔΔCT analysis) to the similarly detected 36B4 housekeeping. The profiles presented in dendogram format were analyzed with the Ward hierarchical clustering algorithm (JMP 11) using standardized data.

The subject of the next assay is MCF7 xenograft tumors. The assay is described as follows: MCF7 xenograft tumor study after estrogen pellet removal. Type of assay: in vivo, mice. The method, then: Xenograft tumor analysis: Estrogen-stimulated MCF7 tumors were initiated in the axial mammary gland of 6-week old estrogen-treated (0.72 mg/60 days pellet sc, Innovative Research of America) ovariectomized female NU/NU mice (in-house colony) by serial transfer and were measured as described (Wardell et al., (2013) Clin Cancer Res 19 (9):2420-2431). […] FIG. 9: At ˜0.1 cm^3 tumor volume, the estrogen pellet was surgically removed, and mice were randomized (n=6-10) to daily treatment with vehicle or RAD1901 (0.3-10 mg/kg). Treatments were formulated as above. Animal tissues were processed and analyzed as described (Wardell et al., (2013) Clin Cancer Res 19 (9):2420-2431).
As shown above, high dose RAD1901 (20 mg/kg) inhibited the growth of ESR1-dependent MCF7-cell derived tumors in mice. However, the observation that uterine wet weight was increased in mice treated with doses of RAD1901 that were lower than that required to effect ESR1 turnover highlighted the need to examine whether a similar biphasic pharmacology was manifest in breast tumors. To further evaluate the pharmacology of RAD1901, a second xenograft tumor study was conducted in which MCF7 tumors were established under estrogen stimulation. For FIG. 9A, MCF7 xenograft tumors were initiated in ovariectomized female nu/nu mice as in FIG. 5. Estrogen pellets were surgically removed when tumors reached ˜0.1 cm^3 volume, and animals (n=6-10) then received daily treatment with vehicle or RAD1901 (RAD), (0.3-10 mg/kg sc). Mean tumor volume+/−SEM per day of treatment was presented. Significance as compared to the vehicle (2-way ANOVA of matched values followed by Bonferroni comparison) was indicated (*p<0.05, **p<0.0005). For FIG. 9B, uterine wet weight at sacrifice (measured as in FIG. 8) and % change in tumor volume (as compared to size at randomization) calculated using the final measurement recorded for mice in (FIG. 9A) are graphically presented. For FIGS. 9C-9D, expression of ESR1 target genes in tumors was analyzed essentially as in FIG. 5. Estrogen only samples from FIG. 5D were included for comparison. For FIG. 9E, ESR1 levels in tumor tissues were analyzed as in FIG. 8 and were normalized to similarly detected Lamin-A. Significant downregulation (*p<0.05) was determined by ANOVA followed by Bonferroni comparison.

Assay [1] concerns the target T1, human estrogen receptor beta (ESR2) (Homo sapiens, UniProt Q92731).
T1 construct: expressed in transfected cells; host or cells: SKBR3
In words: ERE-luciferase reporter assay in transiently transfected SKBR3 cells (ESR2). Conditions: ESR2 isoform, E2 10 nM, RAD1901 10^-10-10^-6 M, 24 hours. Type of assay: cell-based. On the procedure:
The ability of RAD1901 (FIG. 5A) to modulate the […] estradiol (E2) dependent transcriptional activity of the human estrogen receptor alpha (ESR1) and human estrogen receptor beta (ESR2) was assessed in transiently transfected SKBR3 cells using a synthetic reporter gene. […] For FIG. 5B, SKBR3 cells were plated in phenol red free media supplemented with charcoal stripped FBS (CFS) 24 hours prior to transfection with an ERE-luciferase reporter together with ESR1 or ESR2 expression vectors. 24 hours after transfection, cells were treated with E2 (10 nM) together with RAD1901 (10^−10-10^−6 M) for 24 hours prior to harvest and analysis of luciferase activity normalized to co-transfected β-galactosidase control. […] For FIG. 5D, MCF7 cells were plated in phenol red free media supplemented with CFS 24 hours prior to treatment, and were treated with 10^−9 M E2 as well as with the indicated ligands (10^−11-10^−6 M) on days 1, 4, and 6 of an 8 day proliferation assay. DNA content as assessed by fluorescence was measured as a surrogate for cell proliferation. The relative increase in DNA fluorescence was calculated by normalizing to baseline values detected in a duplicate plate of cells that was harvested on day 1 prior to the initial treatment. […] For FIG. 5F, expression of ESR1 target genes in tumors was analyzed essentially as in (C).
On the technique in general: In a reporter assay the amount or activity of a reporter protein is the signal.

T1 sequence (Q92731 whole entry): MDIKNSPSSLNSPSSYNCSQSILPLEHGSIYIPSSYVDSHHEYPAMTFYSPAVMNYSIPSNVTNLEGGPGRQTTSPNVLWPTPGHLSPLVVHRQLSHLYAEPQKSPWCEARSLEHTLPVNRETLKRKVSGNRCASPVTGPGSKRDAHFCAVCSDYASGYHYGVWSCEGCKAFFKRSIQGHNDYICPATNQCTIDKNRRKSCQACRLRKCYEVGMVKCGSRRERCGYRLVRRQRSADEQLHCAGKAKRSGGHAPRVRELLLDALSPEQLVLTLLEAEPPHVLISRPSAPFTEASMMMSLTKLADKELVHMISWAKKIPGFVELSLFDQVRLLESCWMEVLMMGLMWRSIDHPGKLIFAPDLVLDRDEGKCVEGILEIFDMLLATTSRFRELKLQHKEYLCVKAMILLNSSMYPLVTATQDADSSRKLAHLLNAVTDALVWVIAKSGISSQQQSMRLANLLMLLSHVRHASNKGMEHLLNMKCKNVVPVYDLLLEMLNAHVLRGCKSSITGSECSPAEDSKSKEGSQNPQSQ

`CCNCCc1ccc(CN(CC)c2cc(OC)ccc2[C@@H]2CCc3cc(O)ccc3C2)cc1` [RAD1901, (R)-6-{2-{ethyl[4-(2-ethylaminoethyl)benzyl]amino}-4-methoxyphenyl}-5,6,7,8-tetrahydronaphthalen-2-ol]: the insulin-stimulated proliferation result in the assay with MCF7 cells is “without effect”. Also, the “ESR1 levels in tumor extracts (immunoblot)” value in the assay on MCF7 xenograft tumors (0.3-10 mg/kg) was “dose-dependent downregulation”. The final tumor size result in the assay with MCF7 xenograft tumors (1 or 3 mg/kg groups) is given as “significantly increased”. The figures for the “tumor growth after estrogen withdrawal” value in the assay on MCF7 xenograft tumors (1 or 3 mg/kg sc daily) and in the assay on MCF7 xenograft tumors (higher dose (10 mg/kg) sc daily) were “significant stimulation of tumor growth” and “not apparent at the higher dose”, respectively. The “expression of AGR2 in tumors” value in the assay on MCF7 xenograft tumors (1 or 3 mg/kg treatment groups) is reported as “observed”. Moreover, the “expression of classical ESR1 target genes such as PGR in tumors” value in the assay with MCF7 xenograft tumors (1 or 3 mg/kg treatment groups) is given as “not observed”. Besides, in the assay on MCF7 xenograft tumors (nu/nu mice, 0.3-10 mg/kg sc daily), the “uterine wet weight at sacrifice” value is reported as “stimulation of uterine weight was apparent in mice treated with only the 0.3 mg/kg dose”. Moreover, the “inhibition of E2-dependent activation of an ERE-luciferase reporter” value in assay [1] is reported as “effectively inhibited”.

The record behind these values is patent US10420734B2, “Method of treating cancer using selective estrogen receptor modulators” (Duke University, priority 2014, dated 2019).
